Results published in patent US9334264B2, “NAMPT inhibitors” (AbbVie Inc., priority 2012, dated 2016).

Tests used:
[1] = target: NAMPT (human, recombinant, C-terminally His-tagged) (Homo sapiens, UniProt P43490); test: Time-Resolved Fluorescence Resonance Energy Transfer (TR-FRET) Binding Assay of NAMPT; conditions: absence of substrates; 6.8 nM NAMPT, 200 nM probe, equilibrated 3 hours
How it was run: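 Compounds (typically 11 half-log dilutions, 2% DMSO final) equilibrated 3 h at room temperature with 6.8 nM human C-His NAMPT, 1 nM Tb-anti-His antibody and 200 nM fluorescent competitive probe in pH 7.5 HEPES buffer. IC50 derived by logistic fit of normalized TR-FRET ratio (520/495 nm).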

NAMPT = NAMPT (Homo sapiens, UniProt P43490); test: Time-Resolved Fluorescence Resonance Energy Transfer (TR-FRET) Binding Assay of NAMPT with PRPP; conditions: 200 μM PRPP and 2.5 mM ATP; 2 nM NAMPT, 2 nM probe, equilibrated 16 hours
How it was run: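 Compounds were equilibrated for 16 hours before TR-FRET readout, with substrates present (200 μM PRPP, 2.5 mM ATP) to permit enzymatic modification. Final mix: 2 nM His-tagged NAMPT, 2 nM probe, 1 nM Tb-anti-His antibody, 2% DMSO.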

NAMPT, sequence (P43490 whole entry): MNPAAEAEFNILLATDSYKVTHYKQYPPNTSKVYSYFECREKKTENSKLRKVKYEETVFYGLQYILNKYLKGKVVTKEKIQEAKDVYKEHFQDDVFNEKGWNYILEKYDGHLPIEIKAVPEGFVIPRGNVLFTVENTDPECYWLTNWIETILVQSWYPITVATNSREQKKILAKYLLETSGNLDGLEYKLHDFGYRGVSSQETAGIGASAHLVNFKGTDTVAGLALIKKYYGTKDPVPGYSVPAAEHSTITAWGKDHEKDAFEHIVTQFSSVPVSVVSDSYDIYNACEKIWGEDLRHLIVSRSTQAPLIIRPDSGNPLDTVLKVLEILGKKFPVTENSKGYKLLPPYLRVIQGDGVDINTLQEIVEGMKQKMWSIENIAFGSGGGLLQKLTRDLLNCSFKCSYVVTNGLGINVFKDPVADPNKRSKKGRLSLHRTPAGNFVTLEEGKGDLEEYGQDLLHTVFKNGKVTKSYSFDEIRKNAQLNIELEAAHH
NAMPT (human, recombinant, C-terminally His-tagged), sequence (P43490 whole entry): as above

SMILES | IC50 [1] | IC50 (NAMPT)
CC(C)CCN(C(=O)C1CC1)c1ncc(C(=O)NCCCn2ccnc2)s1 [Example 152, 2-[(cyclopropylcarbonyl)(3-methylbutyl)amino]-N-[3-(1H-imidazol-1-yl)propyl]-1,3-thiazole-5-carboxamide] | 768 nM | 0.232 nM
CC(=O)O[C@@H](C)C(=O)N(CCC(C)C)c1ncc(C(=O)NCCCn2ccnc2)s1 [Example 153, (2S)-1-[(5-{[3-(1H-imidazol-1-yl)propyl]carbamoyl}-1,3-thiazol-2-yl)(3-methylbutyl)amino]-1-oxopropan-2-yl acetate] | 1430 nM | 0.286 nM
CC(C)CCN(C(=O)CC1CCOCC1)c1ncc(C(=O)NCCCn2ccnc2)s1 [Example 154, N-[3-(1H-imidazol-1-yl)propyl]-2-[(3-methylbutyl)(tetrahydro-2H-pyran-4-ylacetyl)amino]-1,3-thiazole-5-carboxamide] | 230 nM | 0.518 nM
CC(C)CCN(C(=O)C1CCOC1)c1ncc(C(=O)NCCCn2ccnc2)s1 (stereo not drawn) [Example 155, N-[3-(1H-imidazol-1-yl)propyl]-2-[(3-methylbutyl)(tetrahydrofuran-3-ylcarbonyl)amino]-1,3-thiazole-5-carboxamide] | 669 nM | 0.254 nM
CCOC(=O)C(C)(C)CNC(=O)N(Cc1ccc(C#N)cc1)c1ncc(C(=O)NCCCn2ccnc2)s1 [Example 163, ethyl 3-{[(4-cyanobenzyl)(5-{[3-(1H-imidazol-1-yl)propyl]carbamoyl}-1,3-thiazol-2-yl)carbamoyl]amino}-2,2-dimethylpropanoate] | 6800 nM | 171 nM
N#Cc1ccc(CN(C(=O)NC2CC(C(=O)O)C2)c2ncc(C(=O)NCCCn3ccnc3)s2)cc1 (stereo not drawn) [Example 164, 3-{[(4-cyanobenzyl)(5-{[3-(1H-imidazol-1-yl)propyl]carbamoyl}-1,3-thiazol-2-yl)carbamoyl]amino}cyclobutanecarboxylic acid] | > 10000 nM | 583 nM
COCCCNC(=O)N(Cc1ccc(C#N)cc1)c1ncc(C(=O)NCCCn2ccnc2)s1 [Example 166, 2-{(4-cyanobenzyl)[(3-methoxypropyl)carbamoyl]amino}-N-[3-(1H-imidazol-1-yl)propyl]-1,3-thiazole-5-carboxamide] | > 10000 nM | 630 nM

Next, values leading:

IC50 [1] | IC50 (NAMPT) | SMILES
8230 nM | 291 nM | CCOC(=O)CCNC(=O)N(Cc1ccc(C#N)cc1)c1ncc(C(=O)NCCCn2ccnc2)s1 [Example 159, ethyl N-[(4-cyanobenzyl)(5-{[3-(1H-imidazol-1-yl)propyl]carbamoyl}-1,3-thiazol-2-yl)carbamoyl]-beta-alaninate]
> 10000 nM | 195 nM | CCOC(=O)CCCNC(=O)N(Cc1ccc(C#N)cc1)c1ncc(C(=O)NCCCn2ccnc2)s1 [Example 160, ethyl 4-{[(4-cyanobenzyl)(5-{[3-(1H-imidazol-1-yl)propyl]carbamoyl}-1,3-thiazol-2-yl)carbamoyl]amino}butanoate]
> 10000 nM | 215 nM | CCOC(=O)CC(C)NC(=O)N(Cc1ccc(C#N)cc1)c1ncc(C(=O)NCCCn2ccnc2)s1 (stereo not drawn) [Example 161, ethyl 3-{[(4-cyanobenzyl)(5-{[3-(1H-imidazol-1-yl)propyl]carbamoyl}-1,3-thiazol-2-yl)carbamoyl]amino}butanoate]
3330 nM | 187 nM | CCOC(=O)CC(NC(=O)N(Cc1ccc(C#N)cc1)c1ncc(C(=O)NCCCn2ccnc2)s1)C(C)C (stereo not drawn) [Example 162, ethyl 3-{[(4-cyanobenzyl)(5-{[3-(1H-imidazol-1-yl)propyl]carbamoyl}-1,3-thiazol-2-yl)carbamoyl]amino}-4-methylpentanoate]
340 nM | 99.1 nM | CCOC(=O)C(C)CNC(=O)N(Cc1ccc(C#N)cc1)c1ncc(C(=O)NCCCn2ccnc2)s1 (stereo not drawn) [Example 165, ethyl 3-{[(4-cyanobenzyl)(5-{[3-(1H-imidazol-1-yl)propyl]carbamoyl}-1,3-thiazol-2-yl)carbamoyl]amino}-2-methylpropanoate]
